Among the data in patent US8895599B2, “Lipoprotein lipase-activating compositions comprising benzene derivates” (Otsuka Pharmaceutical Factory, Inc., priority 2008, dated 2014) are melting point values, retold here.

With `COc1cc(-c2nc3ccccn3c2C)ccc1OCc1ccccc1.Cl`, the melting point (as a rule, the temperature, or range, at which the solid turns liquid) fell in the range of 241 to 243 °C.
Turning to `COc1cc(-c2cn3ccccc3n2)ccc1O.Cl`, the melting point was in the range of 276 to 278 °C.
As for `COc1cc(-c2nc3sccn3c2C)ccc1OCc1ccccc1.Cl`, the figure is 228 to 230 °C; as for `COc1cc(-c2nc3ccccn3c2Cl)ccc1OCc1ccccc1` [Example 2], 103 to 104 °C.
For the molecule `COc1cc(-c2nc3ccccn3c2Br)ccc1OCc1ccccc1` [Example 3], the melting point fell in the range of 115 to 117 °C.
As to `COc1cc(-c2cn3ccccc3n2)ccc1OCc1ccc(F)cc1` [Example 6], the melting point fell in the range of 144 to 146 °C.
The value for `COc1cc(-c2cn3ccccc3n2)ccc1OCc1ccc(C(F)(F)F)cc1` [Example 7] was 172 to 173 °C; that for `COc1cc(-c2cn3ccccc3n2)ccc1OCc1cc(F)ccc1C(F)(F)F` [Example 8] was 125 to 126 °C; that for `COc1cc(-c2cn3ccccc3n2)ccc1OCc1ccc(C)cc1` [Example 9] was 155 to 157 °C.
`COc1cc(-c2cnc3ccccn23)ccc1OCc1ccccc1` [Example 12, 3-(4-benzyloxy-3-methoxyphenyl)imidazo[1,2-a]pyridine] returned a melting point of 129 to 131 °C.
The molecule `c1ccc(COc2ccc(-c3cn4ccccc4n3)cc2)cc1` [Example 13] showed a melting point of 171 to 173 °C.
Molecule `COc1cc(-c2cn3cc(C)ccc3n2)ccc1OCc1ccccc1` [Example 15] had a melting point of 135 to 136 °C.
As for `COc1cc(-c2cn3ccc(C)cc3n2)ccc1OCc1ccccc1` [Example 16], the melting point lay within 171 to 173 °C.
For the molecule `COc1cc(-c2cn3cc(C(F)(F)F)ccc3n2)ccc1OCc1ccccc1` [Example 17], the melting point was in the range of 172 to 173 °C.
The value for `COc1cc(-c2cn3cc(Cl)ccc3n2)ccc1OCc1ccccc1` [Example 18] was 177 to 179 °C; that for `COc1cc(-c2nc3ccccn3c2Cl)ccc1OCc1ccc(Cl)cc1` [Example 19] was 139 to 140 °C.
On to `COc1cc(-c2nc3ccccn3c2Cl)ccc1OCc1cccc(F)c1` [Example 20], for which the melting point was 104 to 105 °C.
`COc1cc(-c2cn3ccccc3n2)ccc1OCc1cccc(Cl)c1` [Example 21]: the melting point was 114 to 115 °C.
Turning to `COc1cc(-c2cn3ccccc3n2)ccc1OCc1ccc(Cl)c(Cl)c1` [Example 22], the melting point fell in the range of 138 to 139 °C.
Consider `COc1cc(-c2cn3ccsc3n2)ccc1OCc1ccccc1` [Example 24], for which the melting point is 130 to 132 °C.
In turn, `COc1cc(-c2nc3ccccn3c2C)ccc1OCc1ccc(Cl)cc1` [Example 26] returned a melting point of 114 to 115 °C.
The molecule `COc1cc(-c2nc3ccccn3c2C)ccc1OCc1ccc(C)cc1` [Example 27] gave a melting point of 118 to 120 °C.
As to `COc1cc(-c2cn3cccnc3n2)ccc1OCc1ccccc1` [Example 28, 2-(4-benzyloxy-3-methoxyphenyl)imidazo[1,2-a]pyrimidine], the melting point lay in the range of 168 to 169 °C.
In turn, `COc1cc(-c2cn3cccnc3n2)ccc1OCc1ccc(Cl)cc1` [Example 29] gave a melting point of 216 to 218 °C.
As for `COc1cc(-c2cn3ccccc3n2)ccc1OCc1ccc(Br)cc1` [Example 31], the figure is 136 to 137 °C; as for `COc1cc(-c2cn3cc(C)ccc3n2)ccc1OCc1ccc(Cl)cc1` [Example 32], 140 to 142 °C.
`COc1cc(-c2cn3c(C)cccc3n2)ccc1OCc1ccccc1` [Example 33] yielded a melting point of 130 to 132 °C.
The value for `COc1cc(-c2cn3cccc(C)c3n2)ccc1OCc1ccccc1` [Example 34] was 99 to 100 °C.
With `COc1ccc(COc2ccc(-c3cn4ccccc4n3)cc2OC)cc1` [Example 35], the melting point is 165 to 167 °C.
As for `COc1ccc(COc2ccc(-c3cn4ccccc4n3)cc2)cc1` [Example 36], the figure is 215 to 218 °C.
As for `Clc1ccc(COc2ccc(-c3cn4ccccc4n3)cc2)cc1` [Example 37], the figure is 229 to 231 °C; as for `COc1cc(-c2cn3ccccc3n2)ccc1OCc1ccc([N+](=O)[O-])cc1` [Example 38], 197 to 200 °C.
`Cc1cc(-c2cn3ccccc3n2)ccc1OCc1ccccc1` [Example 39] came in with a melting point of 123 to 124 °C.
The value for `O=C(O)c1cc(-c2cn3ccccc3n2)ccc1OCc1ccccc1` [Example 40] was 239 to 240 °C; that for `COc1cc(-c2cn3ccccc3n2)cc(OC)c1OCc1ccccc1` [Example 41] was 154 to 155 °C.
As for `COc1cc(-c2cn3ccsc3n2)ccc1OCc1ccc(Br)cc1` [Example 42], the melting point was 134 to 136 °C.
Take `COc1cc(-c2cn3cc(C)sc3n2)ccc1OCc1ccc(Cl)cc1` [Example 43]: the melting point was in the range of 156 to 158 °C.
In turn, `COc1cc(-c2cn3cc(C(=O)O)ccc3n2)ccc1OCc1ccc(C#N)cc1` [Example 44] registered a melting point of 242 to 243 °C.
For the molecule `COc1cc(-c2cn3cc(C(=O)O)ccc3n2)ccc1OCc1ccc(Cl)cc1` [Example 45], the melting point fell in the range of 251 to 253 °C.
Molecule `COC(=O)c1ccc2nc(-c3ccc(OCc4ccc(Cl)cc4)c(OC)c3)cn2c1` [Example 46] returned a melting point of 182 to 183 °C.
As for `COC(=O)c1cc(-c2cn3ccccc3n2)ccc1OCc1ccccc1` [Example 47], the figure is 179 to 181 °C.
Molecule `COc1cc(-c2cn3ccsc3n2)ccc1OCc1ccc(C#N)cc1` [Example 48] had a melting point of 179 to 181 °C.
`COc1cc(-c2cn3ccsc3n2)ccc1OCc1ccc([N+](=O)[O-])cc1` [Example 49] returned a melting point of 189 to 191 °C.
The molecule `COC(=O)c1ccc(COc2ccc(-c3cn4ccccc4n3)cc2OC)cc1` [Example 50] displayed a melting point of 125 to 126 °C.
In turn, `COc1cc(-c2cn3ccccc3n2)ccc1OCc1ccc(C(=O)O)cc1` [Example 51] gave a melting point of 245 to 247 °C.
Consider `COc1cc(-c2cn3cc(Cl)cc(Cl)c3n2)ccc1OCc1ccccc1` [Example 52], for which the melting point lay within 163 to 165 °C.
In the case of `COc1cc(-c2cn3cc(C(F)(F)F)cc(Cl)c3n2)ccc1OCc1ccccc1` [Example 53], the melting point lay in the range of 155 to 156 °C.
The molecule `COc1cc(-c2cn3cccc(O)c3n2)ccc1OCc1ccccc1` [Example 54] displayed a melting point of 187 to 189 °C.
The value for `COc1cc(-c2cn3cccc(OCc4ccccc4)c3n2)ccc1OCc1ccccc1` [Example 55] was 140 to 141 °C.
`COc1cc(-c2cn3cc(C)ccc3n2)ccc1OCc1ccc(Br)cc1` [Example 56] came in with a melting point of 155 to 157 °C.
Molecule `COc1cc(-c2cn3cc(C)ccc3n2)ccc1OCc1ccc(C#N)cc1` [Example 57] returned a melting point of 168 to 169 °C.
The value for `Oc1cc(-c2cn3ccccc3n2)ccc1OCc1ccccc1` [Example 59] was 169 to 171 °C; that for `CCOc1cc(-c2cn3ccccc3n2)ccc1OCc1ccccc1` [Example 60] was 157 to 158 °C.
Take `CCCOc1cc(-c2cn3ccccc3n2)ccc1OCc1ccccc1` [Example 61]: the melting point was 126 to 127 °C.
Regarding `c1ccc(COc2ccc(-c3cn4ccccc4n3)cc2OCc2ccccc2)cc1` [Example 62], the melting point was in the range of 122 to 124 °C.
For `COc1cc(-c2cn3cc(C)cc(Br)c3n2)ccc1OCc1ccccc1` [Example 63], the melting point fell in the range of 136 to 137 °C.
As to `COc1cc(-c2cn3cc(C)cc(Br)c3n2)ccc1OCc1ccc(Cl)cc1` [Example 64], the melting point lay in the range of 136 to 138 °C.
Regarding `COc1cc(-c2cn3cc(C)cc(Br)c3n2)ccc1OCc1ccc(C#N)cc1` [Example 65], the melting point is 175 to 176 °C.
As to `COc1cc(-c2cn3cc(Br)ccc3n2)ccc1OCc1ccccc1` [Example 66], the melting point lay within 175 to 176 °C.
As for `Oc1cc(-c2cn3ccccc3n2)ccc1OCc1ccc(Cl)cc1` [Example 67], the figure is 206 to 208 °C; as for `CCOc1cc(-c2cn3ccccc3n2)ccc1OCc1ccc(Cl)cc1` [Example 68], 136 to 137 °C; as for `COc1cc(-c2cn3cc(Br)cc(C)c3n2)ccc1OCc1ccc(Cl)cc1` [Example 69], 155 to 156 °C.
The value for `COc1cc(-c2cn3cc(Br)c(C)c(C)c3n2)ccc1OCc1ccc(Cl)cc1` [Example 70] was 166 to 167 °C; that for `COc1cc(-c2cn3ccccc3n2)ccc1OCC1CC1` [Example 71] was 121 to 123 °C.
In turn, `c1ccc(Oc2ccc(-c3cn4ccccc4n3)cc2)cc1` [Example 72] returned a melting point of 164 to 165 °C.
With `COc1cc(-c2cn3cccc(C)c3n2)ccc1OCc1ccc(Cl)cc1` [Example 73], the melting point was in the range of 132 to 133 °C.
Molecule `COc1cc(-c2cn3cccc(C)c3n2)ccc1OCc1ccc(C#N)cc1` [Example 74] displayed a melting point of 144 to 146 °C.
In turn, `COc1cc(-c2cn3cccc(OCc4ccccc4)c3n2)ccc1OCc1ccc(Cl)cc1` [Example 75] displayed a melting point of 164 to 166 °C.
The molecule `COc1cc(-c2nc3ccccc3[nH]2)ccc1OCc1ccccc1` [Example 76, 2-(4-benzyloxy-3-methoxyphenyl)benzimidazole] gave a melting point of 219 to 221 °C.
Turning to `COc1cc(-c2nc3ccccc3[nH]2)ccc1OCc1ccc(Cl)cc1` [Example 77], the melting point is 204 to 206 °C.
`COc1cc(-c2nc3ccccc3s2)ccc1OCc1ccccc1` [Example 78, 2-(4-benzyloxy-3-methoxyphenyl)benzothiazole] gave a melting point of 108 to 109 °C.
`COc1cc(-c2c[nH]c(-c3ccccc3)n2)ccc1OCc1ccccc1` [Example 79] had a melting point of 190 to 192 °C.
The value for `COc1cc(-c2cn3cc(Cl)cc(Cl)c3n2)ccc1OCc1ccc(Cl)cc1` [Example 80] was 162 to 163 °C; that for `COc1cc(-c2cn3cc(Cl)cc(Cl)c3n2)ccc1OCc1ccc(C#N)cc1` [Example 81] was 187 to 189 °C.
The value for `COc1cc(-c2cn3cccc(C)c3n2)ccc1OCc1ccc(Br)cc1F` [Example 82] was 122 to 124 °C.
